Reference: patent US5134156A, “Pharmaceutical composition and method for angiogenesis inhibition” (Zaidan Hojin Biseibutsu Kagaku Kai, priority 1989, dated 1992)

Tests used:
[1] = test system: chorio-allantoic membrane; experiment: Development/formation of chorio-allantoic membrane in the incubated chicken egg; assay type: in vivo
Procedure: (§1) Fertilized chicken eggs were incubated for 4 days, and one hole was then bored by a gimlet at the top of the air chamber of the incubated eggs and another hole was bored at the lower lateral part of the egg. The white of egg (about 2 ml) was removed by suction at the lower hole of the egg. The air within the air chamber was sucked off through the hole bored at the top of the air chamber of the egg so that the eggshell membrane was released from the chorio-allantoic membrane (CAM) of the chicken embryo. The hole at the lower lateral part of the egg was then sealed. A part of the eggshell was then cut off from the top of the air chamber of the egg and a silicone ring having an inner diameter of 3 mm was placed directly on the chorio-allantoic membrane (having a diameter of 1 to 3 mm) in each egg, followed by pouring a solution (10 μl) containing a predetermined amount of actinonin and 1% methylcellulose in physiological saline into the silicone ring. The top of the air chamber of the egg was covered by a cap and the eggs were then further incubated for 2 days in an incubator. After this further incubation for 2 days, intralipid was injected into the CAM and the CAM so treated was photographed for estimation of the development of blood vessels.

[2] = test system: angiogenesis in chorio-allantoic membrane (CAM) of the chicken embryo; experiment: Inhibition of angiogenesis in chorio-allantoic membrane (CAM) of the chicken embryo in the incubated chicken egg; assay type: in vivo; conditions: for Degree of Inhibition I: number of CAM / Degree of Inhibition II: number of CAM / Degree of Inhibition III: number of CAM / Degree of Inhibition 0: number of CAM: n = 5 tested CAM, 2 days incubation; for Degree of Inhibition I: number of CAM: I-degree: avascular area 2 mm to 4 mm in diameter; for Degree of Inhibition II: number of CAM: II-degree: avascular area 4 mm to 6 mm in diameter; for Degree of Inhibition III: number of CAM: III-degree: avascular area greater than 6 mm in diameter; for Degree of Inhibition 0: number of CAM: zero-degree: avascular area less than 2 mm in diameter
Procedure: as §1
Degree of inhibition to the angiogenesis was evaluated in term of the following four scales of zero degree to III-degree, according to the method of Crum et al (see Crum R., Szabo S., and Folkman J.; A new class of steroid inhibits angiogenesis in the presence of heparin or a heparin fragment in the "Science" 230, pp. 1375-1378 (1985)). Thus, the degree of inhibition to angiogenesis were estimated as follows:
Zero-degree . . . The avasuclar area where the blood vessels were not developed has a size of less than 2 mm in its diameter.
I-degree . . . The avascular area has a size of from 2 mm to 4 mm in its diameter.
II-degree . . . The avascular area has a size of from 4 mm to 6 mm in its diameter.
III-degree . . . The avascular area has a size of greater than 6 mm in its diameter.
In Table 1 below, there are shown the estimated degrees of the angiogenesis-inhibiting activity of actinonin at a dose of 10 to 100 μg per CAM.

mice = experiment: Acute toxicity tests in mice by intravenous injection; assay type: in vivo; conditions: 400 mg/kg
[3] = test system: angiogenesis in chorio-allantoic membrane (CAM) of the chicken embryo; experiment: Inhibition of angiogenesis in chorio-allantoic membrane (CAM) of the chicken embryo in the incubated chicken egg; assay type: in vivo; conditions: 500 μg to 10 μg per CAM
[4] = Kokai No. 4228/87; cited from earlier work
[5] = I.A.M. Symposia on Microbiology, No. 6 and U.S. Pat. No. 3,240,787; cited from earlier work
aminopeptidase M = conditions: known from the literature; cited from earlier work
chicken embryo = experiment: Growth of the chicken embryo, visually observed; assay type: in vivo; conditions: 500 μg to 10 μg per CAM
Procedure: as §1

[6] = Kokai No. 15840/86 and U.S. Pat. No. 4,663,342; cited from earlier work

CCCCC[C@H](CC(=O)NO)C(=O)N[C@H](C(=O)N1CCC[C@H]1CO)C(C)C [actinonin]
Inhibition to the development of chorio-allantoic membrane ([1]; 500 μg to 10 μg per CAM, compared to untreated membranes): chorio-allantoic membranes of smaller dimensions as compared to those of the untreated membranes | Inhibition of the formation of chorio-allantoic membrane ([1]; conclusion from the CAM test): without inhibiting the formation of chorio-allantoic membrane | Activity inhibitory to the angiogenesis in CAM ([2]; 10 μg/CAM): shows a high activity inhibitory to the angiogenesis in CAM | Degree of Inhibition I: number of CAM ([2]; 10 μg/CAM): 2 | Degree of Inhibition II: number of CAM ([2]; 10 μg/CAM): 1 | Degree of Inhibition III: number of CAM ([2]; 10 μg/CAM): 1 | Degree of Inhibition 0: number of CAM ([2]; 10 μg/CAM): 1 | Degree of Inhibition I: number of CAM ([2]; 50 μg/CAM): 1 | Degree of Inhibition II: number of CAM ([2]; 50 μg/CAM): 2 | Degree of Inhibition III: number of CAM ([2]; 50 μg/CAM): 1 | Degree of Inhibition 0: number of CAM ([2]; 50 μg/CAM): 1 | Degree of Inhibition I: number of CAM ([2]; 100 μg/CAM): 1 | Degree of Inhibition II: number of CAM ([2]; 100 μg/CAM): 1 | Degree of Inhibition III: number of CAM ([2]; 100 μg/CAM): 1 | Degree of Inhibition 0: number of CAM ([2]; 100 μg/CAM): 2 | Angiogenesis-inhibiting activity ([2]; doses of 10 to 100 μg per CAM): shows an angiogenesis-inhibiting activity | Deaths in acute toxicity tests (mice): no deaths | Inhibition of angiogenesis in the chorio-allantoic membrane [3]: can inhibit the angiogenesis | Analgesic effect [4]: effective as an analgesic agent | Antibacterial activity [5]: antibacterially active | Activity inhibitory to aminopeptidase M (aminopeptidase M): exhibits an activity inhibitory to aminopeptidase M | Growth of the chicken embryo as a whole (chicken embryo): it was not found that the growth of the chicken embryo as a whole can be inhibited | Immunopotentiating effect [6]: effective as an immunopotentiating agent
